From ChEMBL document CHEMBL1201862, “PubChem BioAssay data set” (2004)
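Assay format: 96-well plates, 48-hour exposure. Abbreviation: GI50, concentration required for 50% inhibition of growth.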 Calls of active or inactive are those of the source. Cut-off read from the data, not from the text of the source: active = GI50 up to about 1.1 µM and inactive = higher.

Tests used:
Assay in all cases: NCI tumour cell line growth inhibition, 48 h
ACHN = tested on: ACHN
MDA-MB-435 = tested on: MDA-MB-435
LOX IMVI = tested on: LOX IMVI
SK-MEL-2 = tested on: SK-MEL-2
SNB-75 = tested on: SNB-75
MCF7 = tested on: MCF7
PC-3 = tested on: PC-3
NCI-H226 = tested on: NCI-H226
COLO 205 = tested on: COLO 205
A549 = tested on: A549
NCI/ADR-RES = tested on: NCI/ADR-RES
SK-MEL-28 = tested on: SK-MEL-28
EKVX = tested on: EKVX
786-0 = tested on: 786-0
SR = tested on: SR
UO-31 = tested on: UO-31
RPMI-8226 = tested on: RPMI-8226
OVCAR-4 = tested on: OVCAR-4
M14 = tested on: M14
HCC 2998 = tested on: HCC 2998

| SMILES | GI50 (ACHN) | GI50 (MDA-MB-435) | GI50 (LOX IMVI) | GI50 (SK-MEL-2) | GI50 (SNB-75) | GI50 (MCF7) | GI50 (PC-3) | GI50 (NCI-H226) | GI50 (COLO 205) | GI50 (A549) | GI50 (NCI/ADR-RES) | GI50 (SK-MEL-28) | GI50 (EKVX) | GI50 (786-0) | GI50 (SR) | GI50 (UO-31) | GI50 (RPMI-8226) | GI50 (OVCAR-4) | GI50 (M14) | GI50 (HCC 2998) |
| --- | --- | --- | --- | --- | --- | --- | --- | --- | --- | --- | --- | --- | --- | --- | --- | --- | --- | --- | --- | --- |
| CC1=CC23C(COC(=O)C24CO4)C(C(=O)O)=CC3C1C (stereo not given) | 27.4 µM (inactive) | 23.1 µM (inactive) | 17 µM (inactive) | 3.08 µM (inactive) | 17.7 µM (inactive) | 35.6 µM (inactive) | 11.9 µM (inactive) | 15.6 µM (inactive) | 24.7 µM (inactive) | 26.1 µM (inactive) | 15.3 µM (inactive) | 2.3 µM (inactive) | 40.4 µM (inactive) | 5.09 µM (inactive) | 17.1 µM (inactive) | 27.3 µM (inactive) | 2.37 µM (inactive) | 15.2 µM (inactive) | 7.55 µM (inactive) | 15.4 µM (inactive) |
| Nc1nc(N)c2cc(-c3ccccc3)cnc2n1 | 12.9 µM (inactive) | > 10 µM (inactive) | 12.4 µM (inactive) | 33 µM (inactive) | 3.61 µM (inactive) | 16.3 µM (inactive) | 8 µM (inactive) | 16.5 µM (inactive) | 14.3 µM (inactive) | 9.44 µM (inactive) | 24.4 µM (inactive) | 17.7 µM (inactive) | 16.9 µM (inactive) | 9.89 µM (inactive) | 6.18 µM (inactive) | 13 µM (inactive) | 16.6 µM (inactive) | 13.9 µM (inactive) | 12.9 µM (inactive) | 33 µM (inactive) |
| COC(=O)c1ccccc1CC1Cc2ccc3c(c2C1=O)CCCC3 (stereo not given) | 48.1 µM (inactive) | 34.6 µM (inactive) | 28.8 µM (inactive) | 24.7 µM (inactive) | 40.4 µM (inactive) | 37.4 µM (inactive) | 23.7 µM (inactive) | 60.1 µM (inactive) | 34 µM (inactive) | 34.3 µM (inactive) | 23.6 µM (inactive) | 64.9 µM (inactive) | 29.9 µM (inactive) | 35.2 µM (inactive) | 14 µM (inactive) | 52.8 µM (inactive) | 19.2 µM (inactive) | 23.3 µM (inactive) | 49 µM (inactive) | 44.3 µM (inactive) |
| CCCCCCCCCCCCN(CC(O)C(O)C(OC1OC(CO)C(O)C(O)C1O)C(O)CO)C(=O)CCCCCCCCCCC (stereo not given) | 16.9 µM (inactive) | 16.8 µM (inactive) | 21.3 µM (inactive) | 23 µM (inactive) | 18.5 µM (inactive) | 28.1 µM (inactive) | 25.2 µM (inactive) | 23.4 µM (inactive) | 20.4 µM (inactive) | 23.6 µM (inactive) | 23.8 µM (inactive) | 17.5 µM (inactive) | 18.8 µM (inactive) | 19 µM (inactive) | 33.1 µM (inactive) | 21.5 µM (inactive) | 29 µM (inactive) | 21.4 µM (inactive) | 19.5 µM (inactive) | 18.4 µM (inactive) |
| Cn1cnc([N+](=O)[O-])c1Sc1nncc2[nH]cnc12 | > 100 µM (inactive) | > 100 µM (inactive) | > 100 µM (inactive) | > 100 µM (inactive) | > 100 µM (inactive) | > 100 µM (inactive) | > 100 µM (inactive) | > 100 µM (inactive) | > 100 µM (inactive) | > 100 µM (inactive) | > 100 µM (inactive) | > 100 µM (inactive) | > 100 µM (inactive) | > 100 µM (inactive) | > 100 µM (inactive) | > 100 µM (inactive) | > 100 µM (inactive) | > 100 µM (inactive) | > 100 µM (inactive) | > 100 µM (inactive) |
| O=C(NC(CS)C(=O)O)c1c2ccccc2nc2ccccc12 (stereo not given) | 21.3 µM (inactive) | 2.81 µM (inactive) | 21.5 µM (inactive) | 47.8 µM (inactive) | 83.8 µM (inactive) | 49.3 µM (inactive) | 23.9 µM (inactive) | < 0.01 µM (active) | 4.55 µM (inactive) | 19.7 µM (inactive) | 67.9 µM (inactive) | 74.1 µM (inactive) | 47.5 µM (inactive) | > 100 µM (inactive) | > 100 µM (inactive) | 3.87 µM (inactive) | 54.1 µM (inactive) | > 100 µM (inactive) | > 100 µM (inactive) | 83.9 µM (inactive) |
| O=C1OC(OC/C(Br)=C(\Br)COC2OC(=O)C(Cl)=C2Cl)C(Cl)=C1Cl (stereo not given) | 5.97 µM (inactive) | 7.24 µM (inactive) | 2.58 µM (inactive) | 19.5 µM (inactive) | 15.9 µM (inactive) | 4.41 µM (inactive) | 14.1 µM (inactive) | 12.8 µM (inactive) | 1.67 µM (inactive) | 14.9 µM (inactive) | 4.92 µM (inactive) | 7.82 µM (inactive) | 9.57 µM (inactive) | 2.51 µM (inactive) | 0.9 µM (active) | 3.18 µM (inactive) | 1.08 µM (active) | 7.6 µM (inactive) | 3.66 µM (inactive) | 17.9 µM (inactive) |
